Assay results as given in article PMC4823954, “From fighting depression to conquering tumors: a novel tricyclic thiazepine compound as a tubulin polymerization inhibitor” (Cell Death & Disease, 2016).

How the values were obtained:
H460TaxR = assay: Cell viability assay (sulforhodamine B); type: cell-based, human; details: for Resistance Folds: EC50 in H460TaxR cells divided by EC50 in H460 cells; for EC50: Homo sapiens, H460/TaxR
Method: (§1) All biological reagents and solvents were obtained from commercial suppliers and used as recommended. The human NSCLC cell line H460 and P-gp-overexpressing drug-resistant cell line H460TaxR were cultured in RPMI-1640 medium supplemented with 10% fetal bovine serum, 100 units/ml penicillin and […] streptomycin. The NHFB cell line NHFB was cultured in DMEM with the same supplements. All cells were maintained in a 37 °C incubator with 95% humidity and 5% CO2.
(§2) The cell viability was determined using the sulforhodamine B assay.[64] In brief, cells (4000 cells in 100 μl medium) were seeded in 96-well culture plates and incubated for 24 h. The cells were treated with the compounds or with an equal volume (0.1%) of DMSO for 72 h. The cell viability was calculated using the following formula: cell viability=Atreatment/Acontrol. The EC50 values were determined using the Sigma Plot 10.0 software package (Systat Software Inc., San Jose, CA, USA).

H460 = assay: Cell viability assay (sulforhodamine B); type: cell-based, human; details: Homo sapiens
Method: as §1, §2

NHFB = assay: Cell viability assay (sulforhodamine B); type: cell-based; details: Fibroblast; NHFB normal human fibroblasts, 72 h
Method: as §1, §2

[1] = toxicity in xenografted mice; details: end of experiment, hematoxylin–eosin
Method: Five injections of vehicle and TBPT (30 or 60 mg/kg) were administered intravenously at days 1, 3, 5, 7 and 9 (arrows). Four injections of PTX (10 mg/kg) were administered intravenously at days 1, 3, 5 and 7. (a) The tumor volume was measured every other day. When the tumor volume in the solvent-treated group exceeded 1500 mm^3, the experiment was terminated. (b) Blood biochemical and hematological analyses. (c) The body weights of the mice were monitored every other day during the experiments. *P<0.05, Student's t-test with day 0, N=5
Figure 3 Histopathological examination of the major organs from TBPT or PTX-treated mouse tumor at the end of the experiments. The cross-sections of organs were stained with hematoxylin–eosin. […] The scale bars represent 50 μm and are uniform in each column
H460 and H460TaxR cells (5 × 10^6 cells in 100 μl PBS) were injected subcutaneously into the dorsal flank of each mouse. When the tumors reached volumes of 100 mm^3, the mice were divided randomly into four groups. The mice were treated every other day five times with intravenous injections of (1) vehicle (the solvent of TBPT: 60% PBS, 8% Cremophor EL, 8% EtOH, 12% poly propylene glycol and 12% PEG-400), (2) TBPT (30 mg/kg) or (3) TBPT (60 mg/kg). Another group was treated with PTX (10 mg/kg) every other day four times as the positive control. The tumor dimensions and body weights were measured every other day. The tumor volume was calculated according to a standard formula: volume=width^2 × length/2. The experiment was terminated and the mice were killed when the tumor volumes in the solvent-treated group exceeded 1500 mm^3. The mouse organs and blood were collected and used for hematoxylin–eosin staining and serum chemistry assay. TGI rates were assessed using the following formula: TGI=1− (Tt−T0)/(Ct−C0) × 100%. Tt and T0 indicate the tumor volumes of the treated group at days t and 0. Ct and C0 indicate the tumor volumes of the control group at days t and 0, respectively.

H460TaxR xenograft = assay: NSCLC xenograft tumor growth inhibition; type: in vivo; details: H460TaxR xenografted mice; PTX 10 mg/kg i.v., four doses every other day
Method: (§3) (a) The tumor volume was measured every other day. […] (b) Blood biochemical and hematological analyses.

H460 xenograft = assay: NSCLC xenograft tumor growth inhibition; type: in vivo; details: H460 xenografted mice; PTX 10 mg/kg i.v., four doses every other day
Method: as §3

[2] = H460TaxR(+Rev), Reversan (P-gp inhibitor)

Structure (SMILES) | Resistance Folds (H460TaxR) | EC50 (H460TaxR; 72 h, H460TaxR cells) | EC50 (H460TaxR; [2]) | EC50 (H460; NCI-H460, 72 h, H460 cells, 72 h) | EC50 (NHFB) | EC50 (H460TaxR; H460TaxR cells) | EC50 (H460; NCI-H460, H460 cells) | histopathological examination of the major organs [1] | tumor growth inhibition, TGI (H460TaxR xenograft) | tumor growth inhibition, TGI (H460 xenograft)
COc1cccc2c1C(=O)c1c(O)c3c(c(O)c1C2=O)C[C@@](O)(C(=O)CO)C[C@@H]3O[C@H]1C[C@H](N)[C@H](O)[C@H](C)O1 [DOX, Doxorubicin] | 18.6 | 2050 ± 690 nM | 170 ± 100 nM | 110 ± 70 nM |  |  |  |  |  | 
CC(=O)O[C@H]1C(=O)[C@@]2(C)[C@H]([C@H](OC(=O)c3ccccc3)[C@]3(O)C[C@H](OC(=O)[C@H](O)[C@@H](NC(=O)c4ccccc4)c4ccccc4)C(C)=C1C3(C)C)[C@]1(OC(C)=O)CO[C@@H]1C[C@@H]2O [PTX, paclitaxel] | 165.0 | 822 nM | 4.4 ± 2.8 nM |  | 51 nM | 990 ± 190 nM | 6 ± 2.1 nM | Hepatocyte necrosis | 42.0% | 66.2%
CC[C@]1(O)C[C@H]2CN(CCc3c([nH]c4ccccc34)[C@@](C(=O)OC)(c3cc4c(cc3OC)N(C=O)[C@H]3[C@@](O)(C(=O)OC)[C@H](OC(C)=O)[C@]5(CC)C=CCN6CC[C@]43[C@@H]65)C2)C1 [VCR, Vincristine] | 78.4 |  | 9.1 ± 3.3 nM |  |  | 1010 ± 101 nM | 12.9 ± 5.2 nM |  |  | 
